From patent publication US20080119463A1, “4-Anilino-3-quinolinecarbonitriles for the treatment of acute myelogenous leukemia (AML)” (Wyeth, priority 2006, published 2008)
Like-named read-outs stand apart in the source and are kept apart here.

Experiments:
U937 cells = experiment: proliferation assay of human AML cell line U937 (Cell Titer Glo, 3 days); type: cell-based; conditions: 3 days growth, Cell Titer Glo luminescence, read-out: IC50 (μM) from proliferation assays of human AML cell lines
Experimental: (§1) These compounds were prepared according to previously published methods (Boschelli, D. H., et. al., J. Med. Chem., 44, 3965 (2001); Boschelli, D. H., et. al., J. Med. Chem., 44, 822 (2001); Boschelli, D. H., et. al., Bioorg. Med. Chem. Lett., 13, 3797 (2003); Boschelli, D. H., et. al., J. Med. Chem., 47, 1599 (2004); and Ye, F. et al., 221st National Meeting of the American Chemical Society, San Diego, Calif. (April, 2001)), hereby incorporated by reference. For this study, 1×10^2 to 1×10^3 cells were plated in 95 μl of growth medium in each well of a 96-well microtiter plate. Compounds were added in 5 μl of medium such that the final concentration of DMSO in the medium was 0.25%. Cells were allowed to grow in a cell culture incubator (37° C.) for 3 days, at which time 100 μl of Promega Cell Titer Glo agent was added. Luminescence (lum) was measured in an Envision microplate reader. Data were processed by first obtaining % inhibition (100−(lum+cpd/lum−cpd); cpd […]). The data were then analyzed with the LSW IC50 calculation model ligand-receptor binding/hyperbolic (y=Bmax/(1+(x/IC50)). The IC50 is the concentration of test compound needed to reduce the total amount of cell proliferation by 50%.
For relevant experiments described above, standard growth medium for a particular cell line was used. For example, the growth medium for U937 cells is: RPMI 1640 supplemented with glutamine, 10% fetal bovine serum, and 50 μg/ml of gentamicin.

KG-1a cells = experiment: proliferation assay of human AML cell line KG-1a (Cell Titer Glo, 3 days); type: cell-based; conditions: 72 h, 3 days growth, Cell Titer Glo luminescence, read-out: IC50 (μM) from proliferation assays of human AML cell lines
Experimental: as §1
For relevant experiments described above, standard growth medium for a particular cell line was used. […]

Work on `COc1cc(Nc2c(C#N)cnc3cc4cc(OCCN5CCOCC5)c(OC)cc4cc23)c(Cl)cc1Cl` [4-(2,4-dichloro-5-methoxy-anilino)-7-methoxy-8-[2-(4-morpholinyl)-ethoxy]-benzo[g]-quinoline-3-carbonitrile] yielded an IC50 (U937 cells; Homo sapiens, U-937, 72 h) of 5.1 µM.
Compound `COc1cc(Nc2c(C#N)cnc3cc(-c4ccc(CN5CCN(C)CC5)cn4)ccc23)c(Cl)cc1Cl` [4-(2,4-dichloro-5-methoxy-anilino)-7-{5-[(4-methyl-piperazin-1-yl)-methyl]-2-pyridinyl]-quinoline-3-carbonitrile] has an IC50 (U937 cells; Homo sapiens, U-937, 72 h) of 2.4 µM.
`COc1cc(Nc2c(C#N)cnc3cc(-c4ccc(CN5CCOCC5)cn4)ccc23)c(Cl)cc1Cl` [4-(2,4-dichloro-5-methoxy-anilino)-7-{5-[(4-morpholinyl)-methyl]-2-pyridinyl]-quinoline-3-carbonitrile] showed an IC50 (U937 cells; Homo sapiens, U-937, 72 h) of 0.73 µM.
`COc1cc(Nc2c(C#N)cnc3cc4cc(OCCN5CCOCC5)c(OC)cc4cc23)c(Cl)cc1C` [4-(2-chloro-4 methyl-5-methoxy-anilino)-7-methoxy-8-[2-(4-morpholinyl)-ethoxy]-benzo[g]-quinoline-3-carbonitrile] showed an IC50 (U937 cells; Homo sapiens, U-937, 72 h) of 1.2 µM.
In the case of `COc1cc2cc3c(Nc4cc(OC)c(OC)c(OC)c4)c(C#N)cnc3cc2cc1OCCN1CCOCC1` [4-(3,4,5-methoxy-anilino)-7-methoxy-8-[2-(4-morpholinyl)-ethoxy]-benzo[g]-quinoline-3-carbonitrile], the IC50 (U937 cells) is reported as 2.1 µM.
With `COc1cc(Nc2c(C#N)cnc3cc(OCCCN4CCN(C)CC4)c(OC)cc23)c(Cl)cc1Cl` [4-[(2,4-dichloro-5-methoxy-phenyl)amino]-6-methoxy-7-[3-(4-methyl-piperazin-1-yl)-propoxy]-quinoline-3-carbonitrile] the IC50 (KG-1a cells) was 1.11 µM.
`COc1cc(Nc2c(C#N)cnc3cc(-c4coc(CN5CCN(C)CC5)c4)c(OC)cc23)c(Cl)cc1Cl` [4-[(2,4-dichloro-5-methoxy-phenyl)amino]-6-methoxy-7-{5-[(4-methyl-piperazin-1-yl)methyl]-3-furyl}-quinoline-3-carbonitrile] showed an IC50 (KG-1a cells) of 0.78 µM.
